Target: T1, KRAS G12C and cRAF (Homo sapiens, UniProt P01116, C118S/C51S/C80L/G12C)
T1 construct: truncated version comprising amino acids 1-169
Assay: AlphaScreen inhibition of KRAS G12C (GMPPNP-loaded) and cRAF RBD binding
Assay type: biochemical
Settings: KRAS G12C preloaded with GMPPNP, 0.5 nM KRAS G12C, 0.75 nM RBD, 19-20 h compound incubation, room temperature
Source text: The ability of compounds of Formula (I), Formula (I-1), Formula (I-2), Formula (II), Formula (II-1) and Formula (II-2), and pharmaceutically acceptable salts and/or isotopologues thereof, to inhibit activity of the GTP-bound form of KRAS G12C can be tested using methods such as the in vitro assay described in Examples 308 and 309 below. Example 308 describes determining, for various compounds, the half-maximal inhibition (IC50) of KRAS G12C loaded with GTP analogue GMPPNP from binding to cRaf, as the Ras-binding domain (RBD). […]
The AlphaScreen technology was used to determine IC50S for compound inhibition of KRAS G12C (present as the Cys-light (C51S, C80L and C118S), truncated version comprising amino acids 1-169) and cRAF interaction. […] A mixture of RBD and the AlphaScreen streptavidin donor and glutathione acceptor beads diluted in 25 mM Hepes, pH 7.4, 150 mM NaCl, 5 mM MgCl2, 0.01% TritonX-100 and 2% DMSO was then added at 10 ul/well and incubated for 60-90 minutes before the samples were read for emission at 570 nm after excitation of the donor beads at 680 nm. […] IC50S were determined using nonlinear regression fit of [inhibitor]vs. response (4 parameters).
A counter assay was also set up to rule out inhibitors of the AlphaScreen technology itself. […] Samples were read and analyzed as above.

T1 sequence (P01116 1-169 isoform P01116-2 G12C/C51S/C80L/C118S): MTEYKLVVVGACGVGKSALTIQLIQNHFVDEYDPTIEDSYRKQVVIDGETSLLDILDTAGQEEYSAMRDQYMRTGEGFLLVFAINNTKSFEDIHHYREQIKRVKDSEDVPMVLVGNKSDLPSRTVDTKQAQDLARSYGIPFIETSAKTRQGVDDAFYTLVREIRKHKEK

## Cc1noc(/C=C/C(=O)N2CC(CN(C)c3nc(OC[C@@]45CCCN4C[C@H](F)C5)nc4c(F)c(-c5cc(O)cc6cccc(Cl)c56)ncc34)C2)n1 [Example 98, (E)-1-(3-(((7-(8-chloro-3-hydroxynaphthalen-1-yl)-8-fluoro-2-(((2R,7aS)-2-fluorotetrahydro-1H-pyrrolizin-7a(5H)-yl)methoxy)pyrido[4,3-d]pyrimidin-4-yl)(methyl)amino)methyl)azetidin-1-yl)-3-(3-methyl-1,2,4-oxadiazol-5-yl)prop-2-en-1-one]
  IC50: < 10 nM

Reference: US20250340548A1, “KRAS G12C INHIBITORS” (Frontier Medicines Corporation, priority 2021, published 2025)
